According to publication PMC8698454, “Anti-Colonization Effect of Au Surfaces with Self-Assembled Molecular Monolayers Functionalized with Antimicrobial Peptides on S. epidermidis” (Antibiotics, 2021):
Like-named read-outs stand apart in the source and are kept apart here. Where a SMILES comes first, the peptide text is derived from it. [ ]: non-standard residue; d: D form. Lys(N3) = [N-]=[N+]=NCCCC[C@H](N)C(=O)O

Legend:
[1] = tested on: Gram-negative bacteria; format: cell-based, E. coli and P. aeruginosa
Protocol: (§1) The minimal inhibitory concentration (MIC) of peptides 1a, 1b, 2a, and 2b were determined by broth microdilution according to the Clinical Laboratory Standard Institute (CLSI) method […]-A9. The MICs of the peptides 1c, 1d, 2c, and 2d were determined by broth dilution according to the European Committee for Antimicrobial Susceptibility Testing (EUCAST). Final concentrations of 0.5-256 μg/mL were tested against a panel of reference bacteria-S. aureus (ATCC 9144), S. epidermidis (1457), E. coli (ATCC 25922), and P. aeruginosa (ATCC 27853). Each strain was tested in biological triplicate. The MIC values were defined as the lowest concentration of the peptides resulting in no visual growth.

[2] = tested on: Gram-positive bacteria; format: cell-based, S. aureus and S. epidermidis
Protocol: as §1

[3] = tested on: Escherichia coli ATCC 25922; format: cell-based; conditions: for Antimicrobial Activity (MIC) E. coli: ATCC 25922; for MIC E. coli ATCC 25922: Table S3
Protocol: as §1

[4] = tested on: Pseudomonas aeruginosa ATCC 27853; format: cell-based; conditions: for Antimicrobial Activity (MIC) P. aeruginosa: ATCC 27853; for MIC P. aeruginosa ATCC 27853: Table S3
Protocol: as §1

[5] = tested on: Staphylococcus aureus ATCC 9144; format: cell-based; conditions: for Antimicrobial Activity (MIC) S. aureus: ATCC 9144; for MIC S. aureus ATCC 9144: Table S3
Protocol: as §1

[6] = tested on: Staphylococcus epidermidis 1457; format: cell-based; conditions: for MIC S. epidermidis 1457: Table S3
Protocol: as §1

[7] = broth microdilution CLSI M07-A9 (1a,1b,2a,2b) or broth dilution EUCAST (1c,1d,2c,2d), 0.5-256 µg/mL tested, biological triplicate, no visual growth
[8] = technical replicate 1, biological replicate BR1
[9] = technical replicate 1, biological replicate BR2
[10] = technical replicate 1, biological replicate BR3
[11] = technical replicate 2, biological replicate BR1
[12] = technical replicate 2, biological replicate BR2
[13] = technical replicate 2, biological replicate BR3
[14] = technical replicate 3, biological replicate BR1
[15] = technical replicate 3, biological replicate BR2
[16] = technical replicate 3, biological replicate BR3
[17] = broth microdilution CLSI M07-A9 (1a,1b,2a,2b) or broth dilution EUCAST (1c,1d,2c,2d), 0.5-256 µg/mL tested, biological triplicate, lowest concentration with no visual growth
[18] = strain 1457, broth microdilution CLSI M07-A9 (1a,1b,2a,2b) or broth dilution EUCAST (1c,1d,2c,2d), 0.5-256 µg/mL tested, biological triplicate, no visual growth

N3-PEG200-RBBRF [2a, azidopeptide N3-PEG200-RBBRF, B = biphenylalanine, amidated C-terminus]
64 µg/mL: MIC against Gram-negative bacteria ([1]; text summary over E. coli ATCC 25922 and P. aeruginosa ATCC 27853) | Antimicrobial Activity (MIC) E. coli [3, 7] | MIC E. coli ATCC 25922 [3, 8] | MIC E. coli ATCC 25922 [3, 9] | MIC E. coli ATCC 25922 [3, 10] | MIC E. coli ATCC 25922 [3, 11] | MIC E. coli ATCC 25922 [3, 12] | MIC E. coli ATCC 25922 [3, 13] | MIC E. coli ATCC 25922 [3, 14] | MIC E. coli ATCC 25922 [3, 15] | MIC E. coli ATCC 25922 [3, 16] | Antimicrobial Activity (MIC) P. aeruginosa [4, 7] | MIC P. aeruginosa ATCC 27853 [4, 8] | MIC P. aeruginosa ATCC 27853 [4, 9] | MIC P. aeruginosa ATCC 27853 [4, 10] | MIC P. aeruginosa ATCC 27853 [4, 11] | MIC P. aeruginosa ATCC 27853 [4, 12] | MIC P. aeruginosa ATCC 27853 [4, 13] | MIC P. aeruginosa ATCC 27853 [4, 14] | MIC P. aeruginosa ATCC 27853 [4, 15] | MIC P. aeruginosa ATCC 27853 [4, 16]
8 µg/mL: MIC against Gram-positive bacteria ([2]; text summary over S. aureus ATCC 9144 and S. epidermidis 1457) | Antimicrobial Activity (MIC) S. aureus [5, 17] | MIC S. aureus ATCC 9144 [5, 8] | MIC S. aureus ATCC 9144 [5, 9] | MIC S. aureus ATCC 9144 [5, 10] | MIC S. aureus ATCC 9144 [5, 11] | MIC S. aureus ATCC 9144 [5, 12] | MIC S. aureus ATCC 9144 [5, 13] | MIC S. aureus ATCC 9144 [5, 14] | MIC S. aureus ATCC 9144 [5, 15] | MIC S. aureus ATCC 9144 [5, 16] | MIC S. epidermidis 1457 [6, 9] | MIC S. epidermidis 1457 [6, 10] | MIC S. epidermidis 1457 [6, 12] | MIC S. epidermidis 1457 [6, 13] | MIC S. epidermidis 1457 [6, 15] | MIC S. epidermidis 1457 [6, 16] | Antimicrobial Activity (MIC) S. epidermidis [6, 18]
4 µg/mL: MIC S. epidermidis 1457 [6, 8] | MIC S. epidermidis 1457 [6, 11] | MIC S. epidermidis 1457 [6, 14]

[N-]=[N+]=NCCCC[C@@H]1NC(=O)[C@H](Cc2ccccc2)NC(=O)[C@H](CCCNC(=N)N)NC(=O)[C@H](Cc2c[nH]c3ccccc23)NC(=O)[C@H](Cc2c[nH]c3ccccc23)NC(=O)[C@H](CCCNC(=N)N)NC1=O [1d] (cyclo(RWWRF[Lys(N3)]))
8 µg/mL: MIC against Gram-positive bacteria [2] | Antimicrobial Activity (MIC) S. aureus [5] | MIC S. aureus ATCC 9144 [5, 8] | MIC S. aureus ATCC 9144 [5, 10] | MIC S. aureus ATCC 9144 [5, 11] | MIC S. aureus ATCC 9144 [5, 13] | MIC S. aureus ATCC 9144 [5, 14] | Antimicrobial Activity (MIC) S. epidermidis [6]; 1457 | MIC S. epidermidis 1457 [6, 8] | MIC S. epidermidis 1457 [6, 9] | MIC S. epidermidis 1457 [6, 11] | MIC S. epidermidis 1457 [6, 12] | MIC S. epidermidis 1457 [6, 14] | MIC S. epidermidis 1457 [6, 15]
16 µg/mL: MIC S. aureus ATCC 9144 [5, 9] | MIC S. aureus ATCC 9144 [5, 12] | MIC S. aureus ATCC 9144 [5, 15] | MIC S. aureus ATCC 9144 [5, 16] | MIC S. epidermidis 1457 [6, 10] | MIC S. epidermidis 1457 [6, 13] | MIC S. epidermidis 1457 [6, 16]
128 µg/mL: Antimicrobial Activity (MIC) P. aeruginosa [4] | MIC P. aeruginosa ATCC 27853 [4, 8] | MIC P. aeruginosa ATCC 27853 [4, 10] | MIC P. aeruginosa ATCC 27853 [4, 11] | MIC P. aeruginosa ATCC 27853 [4, 13] | MIC P. aeruginosa ATCC 27853 [4, 14] | MIC P. aeruginosa ATCC 27853 [4, 16]
256 µg/mL: MIC P. aeruginosa ATCC 27853 [4, 9] | MIC P. aeruginosa ATCC 27853 [4, 12] | MIC P. aeruginosa ATCC 27853 [4, 15]
64 µg/mL: Antimicrobial Activity (MIC) E. coli [3] | MIC E. coli ATCC 25922 [3, 8] | MIC E. coli ATCC 25922 [3, 9] | MIC E. coli ATCC 25922 [3, 10] | MIC E. coli ATCC 25922 [3, 11] | MIC E. coli ATCC 25922 [3, 12] | MIC E. coli ATCC 25922 [3, 13] | MIC E. coli ATCC 25922 [3, 14] | MIC E. coli ATCC 25922 [3, 15] | MIC E. coli ATCC 25922 [3, 16]

[N-]=[N+]=NCCCC[C@H](NC(=O)[C@H](Cc1ccccc1)NC(=O)[C@H](CCCNC(=N)N)NC(=O)[C@H](Cc1c[nH]c2ccccc12)NC(=O)[C@H](Cc1c[nH]c2ccccc12)NC(=O)[C@@H](N)CCCNC(=N)N)C(N)=O [1c] (H-RWWRF[Lys(N3)]-NH2)
64 µg/mL: MIC against Gram-negative bacteria [1] | Antimicrobial Activity (MIC) E. coli [3] | MIC E. coli ATCC 25922 [3, 9] | MIC E. coli ATCC 25922 [3, 11] | MIC E. coli ATCC 25922 [3, 12] | MIC E. coli ATCC 25922 [3, 14] | MIC E. coli ATCC 25922 [3, 15] | Antimicrobial Activity (MIC) P. aeruginosa [4] | MIC P. aeruginosa ATCC 27853 [4, 8] | MIC P. aeruginosa ATCC 27853 [4, 9] | MIC P. aeruginosa ATCC 27853 [4, 11] | MIC P. aeruginosa ATCC 27853 [4, 12] | MIC P. aeruginosa ATCC 27853 [4, 14] | MIC P. aeruginosa ATCC 27853 [4, 15]
16 µg/mL: Antimicrobial Activity (MIC) S. epidermidis [6]; 1457 | MIC S. epidermidis 1457 [6, 8] | MIC S. epidermidis 1457 [6, 9] | MIC S. epidermidis 1457 [6, 10] | MIC S. epidermidis 1457 [6, 11] | MIC S. epidermidis 1457 [6, 12] | MIC S. epidermidis 1457 [6, 13] | MIC S. epidermidis 1457 [6, 14] | MIC S. epidermidis 1457 [6, 15] | MIC S. epidermidis 1457 [6, 16]
16 to 32 µg/mL: MIC against Gram-positive bacteria [2]
32 µg/mL: MIC E. coli ATCC 25922 [3, 8] | MIC E. coli ATCC 25922 [3, 10] | MIC E. coli ATCC 25922 [3, 13] | MIC E. coli ATCC 25922 [3, 16] | MIC P. aeruginosa ATCC 27853 [4, 10] | MIC P. aeruginosa ATCC 27853 [4, 13] | MIC P. aeruginosa ATCC 27853 [4, 16] | Antimicrobial Activity (MIC) S. aureus [5] | MIC S. aureus ATCC 9144 [5, 8] | MIC S. aureus ATCC 9144 [5, 9] | MIC S. aureus ATCC 9144 [5, 10] | MIC S. aureus ATCC 9144 [5, 11] | MIC S. aureus ATCC 9144 [5, 12] | MIC S. aureus ATCC 9144 [5, 13] | MIC S. aureus ATCC 9144 [5, 14] | MIC S. aureus ATCC 9144 [5, 15] | MIC S. aureus ATCC 9144 [5, 16]

N3-PEG200-RWWRF [1a, azidopeptide N3-PEG200-RWWRF, PEG200-linked, amidated C-terminus]
64 µg/mL: Antimicrobial Activity (MIC) S. aureus [5, 17] | MIC S. aureus ATCC 9144 [5, 8] | MIC S. aureus ATCC 9144 [5, 9] | MIC S. aureus ATCC 9144 [5, 10] | MIC S. aureus ATCC 9144 [5, 11] | MIC S. aureus ATCC 9144 [5, 12] | MIC S. aureus ATCC 9144 [5, 13] | MIC S. aureus ATCC 9144 [5, 14] | MIC S. aureus ATCC 9144 [5, 15] | MIC S. aureus ATCC 9144 [5, 16]
32 µg/mL: MIC S. epidermidis 1457 [6, 8] | MIC S. epidermidis 1457 [6, 9] | MIC S. epidermidis 1457 [6, 10] | MIC S. epidermidis 1457 [6, 11] | MIC S. epidermidis 1457 [6, 12] | MIC S. epidermidis 1457 [6, 13] | MIC S. epidermidis 1457 [6, 14] | MIC S. epidermidis 1457 [6, 15] | MIC S. epidermidis 1457 [6, 16] | Antimicrobial Activity (MIC) S. epidermidis [6, 18]
256 µg/mL: Antimicrobial Activity (MIC) E. coli [3, 7] | MIC E. coli ATCC 25922 [3, 9] | MIC E. coli ATCC 25922 [3, 10] | MIC E. coli ATCC 25922 [3, 12] | MIC E. coli ATCC 25922 [3, 13] | MIC E. coli ATCC 25922 [3, 15] | MIC E. coli ATCC 25922 [3, 16] | Antimicrobial Activity (MIC) P. aeruginosa [4, 7] | MIC P. aeruginosa ATCC 27853 [4, 8] | MIC P. aeruginosa ATCC 27853 [4, 9] | MIC P. aeruginosa ATCC 27853 [4, 10] | MIC P. aeruginosa ATCC 27853 [4, 11] | MIC P. aeruginosa ATCC 27853 [4, 12] | MIC P. aeruginosa ATCC 27853 [4, 13] | MIC P. aeruginosa ATCC 27853 [4, 14] | MIC P. aeruginosa ATCC 27853 [4, 15] | MIC P. aeruginosa ATCC 27853 [4, 16]
128 µg/mL: MIC E. coli ATCC 25922 [3, 8] | MIC E. coli ATCC 25922 [3, 11] | MIC E. coli ATCC 25922 [3, 14]
